Tested on: human hepatocytes
Assay: Metabolic stability in hepatocytes
Type: in vitro ADME
Details: 1 μM, 1×10^6 cells/mL, 0-240 min
Procedure, shortened: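 Cryopreserved human hepatocytes at 1×10^6 cells/mL in DMEM were exposed to 1 μM compound (0.1% DMSO) for 0–240 min at 37 °C, 5% CO2. Parent loss quantified by LC-MS/MS; t1/2 = 0.693/k and CLint = k/cell density from semi-log % remaining versus time.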

**Q.** For `N#Cc1ccc(COc2cccc(N3CCN(Cc4nc5ccc(C(=O)O)cc5n4Cc4cncs4)[C@H]4C[C@H]43)n2)c(F)c1` (single isomer, unassigned) [Compound 2, 2-((5-(6-((4-Cyano-2-fluorobenzyl)oxy)pyridin-2-yl)-2,5-diazabicyclo[4.1.0]heptan-2-yl)methyl)-1-(thiazol-5-ylmethyl)-1H-benzo[d]imidazole-6-carboxylic Acid], which hHep t1/2 is on record?
**A.** > 480 min
